Source: the supplement of paper PMC10307832

Legend:
Assay in all cases: relative viability (nuclei count vs DMSO), 5 days (fraction); higher = more cells survive
[1] = compound: C1=CC2=NC=CN=C2C=C1/C=C/3\C(=O)NC(=O)S3 + CCNC(=O)c1noc(-c2cc(C(C)C)c(O)cc2O)c1-c1ccc(CN2CCOCC2)cc1 [Luminespib] (partner 0.01 µM)
In short: (§1)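 Nuclei were stained with Hoechst during a one-step fixation (final 0.05% Triton X-100, 1% formaldehyde, 1 ug/ml Hoechst) carried out 5 days after dosing, then counted on 4× images. The cells, lung cancer lines in 1536-well plates, had been dosed by pin tool the day after seeding with one drug alone or a fixed anchor-drug dose plus five library-drug doses (not always all listed) in √10 steps. Relative viability is the nuclei count in treated wells divided by that in vehicle wells, and each value is the median of duplicate plates.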

[2] = compound: C1=CC2=NC=CN=C2C=C1/C=C/3\C(=O)NC(=O)S3 + O=C(CCCCCCC(=O)Nc1ccccc1)NO [Vorinostat] (partner 1 µM)
In short: as §1

[3] = compound: C1=CC2=NC=CN=C2C=C1/C=C/3\C(=O)NC(=O)S3 + CC(C)C[C@H](NC(=O)[C@H](Cc1ccccc1)NC(=O)c1cnccn1)B(O)O [Bortezomib] (partner 0.002 µM)
In short: as §1

[4] = compound: C1=CC2=NC=CN=C2C=C1/C=C/3\C(=O)NC(=O)S3 + C[C@@H](Oc1cc(-c2cnn(C3CCNCC3)c2)cnc1N)c1c(Cl)ccc(F)c1Cl [Crizotinib] (partner 1 µM)
In short: as §1

UMC-11
relative viability ([1]; first compound 0.02 µM): 0.992
relative viability ([1]; first compound 0.06325 µM): 1.11
relative viability ([1]; first compound 0.2 µM): 1.05
relative viability ([1]; first compound 0.6325 µM): 0.956
relative viability ([1]; first compound 2 µM): 1.16
relative viability ([2]; first compound 0.02 µM): 0.373
relative viability ([2]; first compound 0.06325 µM): 0.345
relative viability ([2]; first compound 0.2 µM): 0.485
relative viability ([2]; first compound 0.6325 µM): 0.316
relative viability ([2]; first compound 2 µM): 0.394
relative viability ([3]; first compound 0.02 µM): 0.869
relative viability ([3]; first compound 0.06325 µM): 0.965
relative viability ([3]; first compound 0.2 µM): 0.523
relative viability ([3]; first compound 0.6325 µM): 0.591
relative viability ([3]; first compound 2 µM): 0.997
relative viability ([4]; first compound 0.02 µM): 0.627
relative viability ([4]; first compound 0.06325 µM): 0.572
relative viability ([4]; first compound 0.2 µM): 0.557
relative viability ([4]; first compound 0.6325 µM): 0.603
relative viability ([4]; first compound 2 µM): 0.722
